Assay results reported in patent US9695155B2, “Herbicidal substituted pyrimidinyloxy benzene compounds” (E. I. DU PONT DE NEMOURS AND COMPANY, priority 2013, dated 2017).

Tests used:
soybean [1] = assay: Test C preemergence; format: in vivo, Glycine max; conditions: for Soybean plant response rating: preemergence, scale 0 (no effect) to 100 (complete control)
Procedure, shortened: (§1)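 Sown in loam/sand → sprayed pre-emergence; or grown to 1–4 leaves in peat mix → sprayed post-emergence. Same solvent/surfactant formulation both ways. Greenhouse 13–15 d. Score 0–100 visual.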

morningglory = assay: Test C preemergence; format: in vivo, Ipomoea coccinea; conditions: for Morningglory plant response rating: preemergence, scale 0 (no effect) to 100 (complete control)
Procedure, shortened: as §1

pigweed = assay: Test A postemergence; format: in vivo, Amaranthus retroflexus
Procedure, shortened: (§2)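 Scoring: eye-based comparison with untreated controls, 0 for no effect through 100 for complete control, at about day 10. Treatments: directed soil spray preemergence; foliar spray postemergence on 2–10 cm plants at the one- to two-leaf stage. Medium: loam soil with sand.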

velvetleaf = assay: Test C postemergence; format: in vivo, Abutilon theophrasti; conditions: for Plant response rating (0 to 100), Velvetleaf: postemergence
Procedure, shortened: as §1

giant foxtail = assay: Test A preemergence; format: in vivo, Setaria faberii
Procedure, shortened: as §2

soybean [2] = assay: Test C postemergence; format: in vivo, Glycine max; conditions: for Plant response rating (0 to 100), Soybean: postemergence; for Plant response rating, Soybean: Postemergence, scale 0 to 100 (0 no effect, 100 complete control)
Procedure, shortened: as §1

galium = assay: Test C preemergence; format: in vivo, Galium aparine; conditions: for Galium plant response rating: preemergence, scale 0 (no effect) to 100 (complete control)
Procedure, shortened: as §1

barnyardgrass [3] = assay: Test B flooded paddy test; format: in vivo, Echinochloa crus-galli; conditions: Flood, 250 g ai/ha; 0 to 100 scale where 0 is no effect and 100 is complete control
Procedure, shortened: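 Greenhouse flooded-pot test: compounds dosed into 3 cm standing water over 2-leaf plants, flood held constant. Rated visually after 13–15 days on 0–100 (complete control = 100); a dash marks no test result.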

johnsongrass = assay: Test C postemergence; format: in vivo, Sorghum halepense; conditions: for Plant response rating (0 to 100), Johnsongrass: postemergence; for Plant response rating, Johnsongrass: Postemergence, scale 0 to 100 (0 no effect, 100 complete control)
Procedure, shortened: as §1

chickweed = assay: Test C postemergence; format: in vivo, Stellaria media; conditions: for Plant response rating (0 to 100), Chickweed: postemergence; for Plant response rating, Chickweed: Postemergence, scale 0 to 100 (0 no effect, 100 complete control)
Procedure, shortened: as §1

barnyardgrass [4] = assay: Test A postemergence; format: in vivo, Echinochloa crus-galli
Procedure, shortened: as §2

[5] = Preemergence, 31 g ai/ha, scale 0 to 100, 0 no effect, 100 complete control
[6] = 125 g ai/ha, 0 to 100 scale where 0 is no effect and 100 is complete control
[7] = 500 g ai/ha, 0 to 100 scale, 0 no effect, 100 complete control

Q: What does the source list for `FC(F)(F)c1cnn(-c2ccccc2Oc2ncc(Cl)cn2)c1` [Compound 16]?
A: Soybean plant response rating (soybean [1]; 62 g ai/ha): 90; Soybean plant response rating (soybean [1]; 125 g ai/ha): 90; Soybean plant response rating (soybean [1]; 250 g ai/ha): 90; Plant response rating, Soybean (soybean [1]; [5]): 75; Morningglory plant response rating (morningglory; 62 g ai/ha): 75; Morningglory plant response rating (morningglory; 125 g ai/ha): 90; Morningglory plant response rating (morningglory; 250 g ai/ha): 98; Plant response rating, Morningglory (morningglory; [5]): 10; Plant response rating, Pigweed (pigweed; [6]): 100; Plant response rating, Pigweed (pigweed; [7]): 100; Plant response rating (0 to 100), Velvetleaf (velvetleaf; 125 g ai/ha): 75; Plant response rating (0 to 100), Velvetleaf (velvetleaf; 250 g ai/ha): 75; Plant response rating, Velvetleaf (velvetleaf; Postemergence, 31 g ai/ha, scale 0 to 100 (0 no effect, 100 complete control), 13 to 15 days): 60; Foxtail, Giant plant response rating (giant foxtail; [6]): 100; Foxtail, Giant plant response rating (giant foxtail; 500 g ai/ha, 0 to 100 scale, 0 no effect, 100 complete control, approx. 10 days): 100; Plant response rating (0 to 100), Soybean (soybean [2]; 125 g ai/ha): 90; Plant response rating (0 to 100), Soybean (soybean [2]; 250 g ai/ha): 90; Plant response rating, Soybean (soybean [2]; 31 g ai/ha, 13 to 15 days): 75; Plant response rating, Soybean (soybean [2]; 62 g ai/ha): 85; Galium plant response rating (galium; 62 g ai/ha): 100; Galium plant response rating (galium; 125 g ai/ha): 100; Galium plant response rating (galium; 250 g ai/ha): 100; Plant response rating, Galium (galium; [5]): 95; Plant response rating, Barnyardgrass (barnyardgrass [3]): 40; Plant response rating (0 to 100), Johnsongrass (johnsongrass; 125 g ai/ha): 10; Plant response rating (0 to 100), Johnsongrass (johnsongrass; 250 g ai/ha): 10; Plant response rating, Johnsongrass (johnsongrass; 31 g ai/ha, 13 to 15 days): 0; Plant response rating, Johnsongrass (johnsongrass; 62 g ai/ha): 5; Plant response rating (0 to 100), Chickweed (chickweed; 125 g ai/ha): 75; Plant response rating (0 to 100), Chickweed (chickweed; 250 g ai/ha): 90; Plant response rating, Chickweed (chickweed; 31 g ai/ha, 13 to 15 days): 40; Plant response rating, Chickweed (chickweed; 62 g ai/ha): 65; Plant response rating, Barnyardgrass (barnyardgrass [4]; [6]): 60; Plant response rating, Barnyardgrass (barnyardgrass [4]; [7]): 100
